US20220072011A1, “TREATMENTS OF ACCUMULATED FAT WITH DEOXYCHOLIC ACID AND SALTS THEREOF” (Allergan Sales, LLC, priority 2015, published 2022)

Test: Precipitate formation from sodium deoxycholate solutions after 1 week of storage (visual inspection)
Type: physicochemical
Details: 1 week storage
Description: Solutions of sodium deoxycholate at different concentration were evaluated for precipitate formation after 1 week of storage. […] By visual inspection, the amount of precipitation can be rated as tabulated below.

C[C@H](CCC(=O)[O-])[C@H]1CCC2C3CC[C@@H]4C[C@H](O)CC[C@]4(C)C3C[C@H](O)[C@@]21C.[Na+] (stereo partly drawn) [Sodium Deoxycholate, sodium (4R)-4-((3R,5R,10S,12S,13R,17R)-3,12-dihydroxy-10,13-dimethylhexadecahydro-1H-cyclopenta[a]phenanthren-17-yl)pentanoate]
Precipitation, Comment (0.5% w/v): Significant amounts of precipitate visible to the naked eye | Precipitation, Comment (1.0% w/v): Significant amounts of precipitate visible to the naked eye
